Series [1] deals with SARS-CoV-2. The note with it: for anti-cytopathic activity against SARS-CoV-2 (in words): Caco-2, hits / concentration-response screen; for inhibition of cytopathicity in the concentration-response screen: Caco-2, compound concentrations of up to 20 µM. A general note: Damage to the host cells serves as the signal in cytopathic effect assays.
Series [2] in a line: in vitro. The note with it: human, Caco-2.
In series [3] the test system is SARS-CoV-2. Kind of series: microbe, parasite or virus in culture. The conditions noted are these: Severe acute respiratory syndrome coronavirus 2, Caco-2, 48 h, read-out: Results SARS-CoV-2 (Caco-2) IC50.
Series [4] concerns SARS-CoV-2. Format: cell-based. The conditions noted are these: 10 µM. The protocol: For the primary screen, the final compound concentration was 10 µM (in 0.1% DMSO) and each compound was tested in singlicate. Concentration-response profiling of primary hits was performed in triplicate with eight concentrations ranging from 20 µM to 20 nM (half-log dilution factor, 0.1% DMSO final). For initial dose response studies, compounds were tested on three different plates to minimise the influence of plate effects. Later dose response studies at lower concentrations were also done on the same plate. Following the addition of compounds, cells were immediately infected with SARS-CoV-2 at a multiplicity of infection (MOI) of 0.01. Positive controls were prepared with the virus but no compounds, and negative controls were prepared without the virus. After 48 h, the medium was removed and cells were fixed in 3% paraformaldehyde in phosphate-buffered saline (PBS). The plates were sealed and disinfected to inactivate the virus[13] then screened by high-content imaging using the Operetta CLS platform (PerkinElmer). The image data were processed as described below and deposited on the Image Data Resource[14].
Images were acquired using a 10× objective with nine imaged fields per well in label-free mode by digital phase contrast (DPC). […] This method improves the signal-to-noise ratio and allows for image segmentation and single-cell analysis. The images were analysed using PerkinElmer Columbus v2.9.0. The analysis sequence started with cell detection (method c, common threshold 0.05, area >100 µm^2, splitting coefficient 6.5, individual threshold 0.05, contrast >0.05) and was followed by calculating morphology, intensity and position properties as well as cell confluence (Fig. 2). The data were deposited on the Image Data Resource[14]. Although we used cell confluence as a read out parameter additional parameters were calculated and deposited as well. These parameters can be used for further analysis to include parameters related to cellular stress or cytoskeletal impairment, both critical for viral replication. Well-level data were analysed in ActivityBase (IDBS) and R v3.6.1, using cell confluence as final read out parameter. […] Outliers were eliminated according to the three-sigma method. Plate-level statistical performance was assessed using the Z’factor calculation with values between 0.35 and 1.0 representing an acceptable assay. Data for the primary screen were deposited on ChEMBL[17].Concentration-response curves were fitted in GraphPad Prism v8.0.0 (GraphPad Software) using a four-parameter […] (least squares fit). Data for the dose-response screen were deposited on ChEMBL[18].
Cytopathicity assays were conducted in 96 well Cellstar plates (Greiner bio-one) using 4 wells with cells without virus (negative control) and 4 wells with cells and with virus (positive control). A three-sigma invalidation was performed on the raw data of the controls on each plate, resulting in maximal one invalidated well per plate during primary screening. During hit confirmation and dose-response studies no wells were eliminated as all wells were within three-sigma. After invalidation the plate specific z’factor was calculated and the plate was removed if quality criteria (z’factor > 0.35) were not met. Plates passing quality control were analysed and normalized as specified above. Hits were identified by having at least 75% efficiency in blocking viral cytopathicity at 10 µM.

The test system of series [5] is SARS-CoV-2. The conditions noted are these: Vero-E6, read-out: Reports SARS-CoV-2 (Vero-E6) IC50, cited from earlier work.
Series [6] concerns SARS-CoV. The note with it: Calu-3; read-out: Reports SARS-CoV (Vero-E6 or Calu-3) IC50; cited from earlier work.
Series [7] has as its system MERS-CoV. The conditions noted are these: Calu-3; read-out: Reports MERS (Vero-6, Calu-3 or BHK21) IC50; cited from earlier work.
The subject of series [8] is SARS-CoV. The note with it: read-out: Reports SARS-CoV (Vero-E6) IC50, cited from earlier work.
The test system of series [9] is MERS-CoV. The note with it: cited from earlier work.
Series [10] relates to MERS-CoV. The conditions noted are these: BHK-21; read-out: Reports MERS (Vero-6, Calu-3 or BHK21) IC50; cited from earlier work.
Setting [11] is: singlicate, Caco-2, 48 h, hit = at least 75% inhibition of cytopathicity.
Setting [12] is: Vero-E6, ref 53, read-out: Reports MERS (Vero-E6) IC50.

Each structure is given as a SMILES string. Like-named read-outs stand apart in the source and are kept apart here.

On to `Cc1c(C(=O)Nc2ccc(N3C[C@@H](C)O[C@@H](C)C3)nc2)cccc1-c1ccc(OC(F)(F)F)cc1` [LDE225], for which the “anti-cytopathic activity against SARS-CoV-2 (in words)” value (“anti-cytopathic activity” for short) in [1] is “identified”.
On to `O[C@@H](COc1cccc2ncccc12)CN1CCN([C@@H]2c3ccccc3[C@@H]3[C@H](c4ccccc42)C3(F)F)CC1` [LY335979, zosuquidar], for which the “anti-cytopathic activity” value in series [1] is given as “identified”.
Consider `CC(=NNC(=S)N1CC2CCC(CC2)C1)c1ccccn1` [NSC319276], for which the “anti-cytopathic activity” value in [1] was “moderately potent”.
A word on the IC50: it is the concentration that gives 50% inhibition. Turning to `CNS(=O)(=O)Nc1nccc(Cc2c(C)c3ccc(Oc4ncccn4)cc3oc2=O)c1F` [RO5126766], the CC50 in [2] is over 20 µM. Besides, the 50% inhibitory concentration (IC50) in series [3] came out at 18.2 µM.
For `Cc1cccc2c1CC[C@H](CN1CCC(c3c(Cl)cccc3Cl)CC1)C[C@@H]2O` [SB-612111], the IC50 in series [3] was 0.77 µM.
`CCN(CC)Cc1cc(Nc2ccnc3cc(Cl)ccc23)ccc1O` [amodiaquine]: in series [4] (setting [11]), the “activity in the primary screen (in words)” value is “inactive”.
Turning to `N#CC(c1ccnc(OCc2ccc(CN3CCOCC3)cc2)n1)c1nc2ccccc2s1` (stereo not drawn) [bentamapimod], the CC50 at 48 h in [2] was over 20 µM. For the same molecule, the 50% inhibitory concentration (IC50) in [3] was 5.9 µM.
On to `CN(C)C(=O)COC(=O)Cc1ccc(OC(=O)c2ccc(NC(=N)N)cc2)cc1` [camostat], for which the IC50 in series [5] (ref 23) was over 50 µM; in series [5] (ref 24), 1 µM; in series [6] it was about 1 µM; in series [7], 1 µM; in [3], under 1 µM.
As to `C[C@H](CS)C(=O)N1CCC[C@H]1C(=O)O` [captopril], the “activity in the primary screen (in words)” value in series [4] (setting [11]) was “did not identify”.
For `CCN(CC)CCCC(C)Nc1ccnc2cc(Cl)ccc12` (stereo not drawn) [chloroquine diphosphate], the “activity in the primary screen (in words)” value in series [4] (48 h) was “inactive”.
Turning to `CCN(CC)CCCC(C)Nc1ccnc2cc(Cl)ccc12` (stereo not drawn) [chloroquine], in series [1], the “anti-cytopathic activity” value was “not observed”. Moreover, the 50% inhibitory concentration (IC50) in [5] (ref 22) is 1.13 µM; in [5] (ref 55), 46.8 µM; in [8] (Vero-E6, ref 56), 4.4 µM; in series [9] (setting [12]) it was 6.28 µM; in series [3] it was over 20 µM.
Consider `C=C(c1ccccc1OCc1cccc(Cl)c1)n1ccnc1` [cloconazole], for which the concentration for half-maximal inhibition (IC50) in series [1] (read-out: Results SARS-CoV-2 (Caco-2) IC50) is at least 20 µM.
`C[C@@H]1C[C@@H]([C@H](O)CC2CC(=O)NC(=O)C2)C(=O)[C@@H](C)C1` [cycloheximide]: the IC50 in [8] was 0.043 µM; in series [9] (read-out: Reports MERS (Vero-E6) IC50), 0.16 µM; in series [3] it was 0.58 ± 0.02 µM. Further, in series [2], the CC50 at 48 h was over 20 µM.
Turning to `CC(C)CN(C[C@@H](O)[C@H](Cc1ccccc1)NC(=O)O[C@H]1CO[C@H]2OCC[C@H]21)S(=O)(=O)c1ccc(N)cc1` [darunavir], the “activity in the primary screen (in words)” value in series [4] (setting [11]) is “inactive”.
Consider `CC[C@H]1CN2CCc3cc(OC)c(OC)cc3[C@@H]2C[C@@H]1C[C@H]1NCCc2cc(OC)c(OC)cc21` [emetine], for which the “CI (cytotoxicity index)” value in [1] (human) was 2. For the same molecule, the IC50 in [8] (Vero-E6, ref 53) is 0.051 µM; in [9] (Vero-E6, ref 54, read-out: Reports MERS (Vero-E6) IC50) it was 0.08 µM; in series [3] it was 0.52 ± 0.09 µM. The same molecule displayed a CC50 in series [2] of 1.13 ± 0.5 µM.
In the case of `COC(=O)C[C@](O)(CCCC(C)(C)O)C(=O)O[C@@H]1C(OC)=C[C@]23CCCN2CCc2cc4c(cc2[C@H]13)OCO4` [homo-harringtonine], in [1], the “anti-cytopathic activity” value was “identified”.
For `CCN(CCO)CCCC(C)Nc1ccnc2cc(Cl)ccc12` (stereo not drawn) [hydroxychloroquine], in series [4] (setting [11]), the “activity in the primary screen (in words)” value was “inactive”.
In the case of `Cc1cccc(C)c1OCC(=O)N[C@@H](Cc1ccccc1)[C@@H](O)C[C@H](Cc1ccccc1)NC(=O)[C@H](C(C)C)N1CCCNC1=O` [lopinavir], the “anti-cytopathic activity” value in series [1] is recorded as “active at the highest concentration”. In addition, the 50% inhibitory concentration (IC50) is 9.12 µM in [5] (ref 23) and 8 µM in series [9] (Vero-E6, ref 57, 58, read-out: Reports MERS (Vero-6, Calu-3 or BHK21) IC50). Further, the “Reports MERS (Vero-6, Calu-3 or BHK21) IC50” value in [9] (Vero-E6, ref 57, 58) is “not active”.
With `CCCCN(CCCC)CC(O)c1cc(Cl)cc2c1-c1ccc(Cl)cc1/C2=C/c1ccc(Cl)cc1` (stereo not drawn) [lumefantrine], in series [4] (setting [11]), the “activity in the primary screen (in words)” value was “inactive”.
Take `OC(c1cc(C(F)(F)F)nc2c(C(F)(F)F)cccc12)C1CCCCN1` (stereo not drawn) [mefloquine]: the “activity in the primary screen (in words)” value in [4] (setting [11]) is recorded as “identified in the primary screen”. Further, the 50% inhibitory concentration (IC50) in series [5] (ref 23) was 4.33 µM; in series [5] (ref 55), 8.06 µM; in series [8] (Vero-E6, ref 53) it was 7.41 µM; in series [9] (setting [12]), 15.5 µM.
Turning to `N=C(N)c1ccc2cc(OC(=O)c3ccc(N=C(N)N)cc3)ccc2c1` [nafamostat], the “potency against SARS-CoV-2 in Caco-2 cell assay relative to previous studies using Vero-E6 cells” value in [1] (comparison with refs 27, 28) is on record as over 500 fold. The half-inhibitory concentration (IC50) was 22.5 µM in series [5] (ref 27, 28) and 0.1 µM in [7].
`COc1ccc(Cc2nccc3cc(OC)c(OC)cc23)cc1OC` [papaverine]: the IC50 in series [10] is 9.45 µM.
For the molecule `NS(=O)(=O)OC[C@@H]1C[C@@H](n2ccc3c(N[C@H]4CCc5ccccc54)ncnc32)C[C@@H]1O` [pevonedistat], the IC50 in series [3] is under 1 µM.
`COc1cc(NC(C)CCCN)c2ncccc2c1` (stereo not drawn) [primaquine]: the “activity in the primary screen (in words)” value in series [4] (setting [11]) is “inactive”.
`COc1ccc2nc3cc(Cl)ccc3c(Nc3cc(CN4CCCC4)c(O)c(CN4CCCC4)c3)c2n1` [pyronaridine]: the “activity in the primary screen (in words)” value in [4] (setting [11]) was “inactive”. For the same molecule, in [1], the “inhibition of cytopathicity in the concentration-response screen” value is under 50%.
With `CCC(CC)COC(=O)[C@H](C)N[P@](=O)(OC[C@H]1O[C@@](C#N)(c2ccc3c(N)ncnn23)[C@H](O)[C@@H]1O)Oc1ccccc1` [remdesivir], the IC50 in series [8] (Vero-E6, ref 22) was 0.069 µM; in [3] it was 0.76 ± 0.18 µM. Also, the CC50 in series [2] is over 20 µM.
As for `CC(C)c1nc(CN(C)C(=O)N[C@H](C(=O)N[C@@H](Cc2ccccc2)C[C@H](O)[C@H](Cc2ccccc2)NC(=O)OCc2cncs2)C(C)C)cs1` [ritonavir], the “activity in the primary screen (in words)” value in [4] (48 h) is “inactive”.
For `COc1cc(C)c2c(Oc3cccc(C(F)(F)F)c3)c(OC)cc(NC(C)CCCN)c2n1` (stereo not drawn) [tafenoquine], the “activity in the primary screen (in words)” value in series [4] (setting [11]) was “inactive”. Further, the “inhibition of cytopathicity in the concentration-response screen” value in series [1] is under 50%.
For the molecule `C[C@@H]1CN(Cc2ccc(F)cc2)[C@@H](C)CN1C(=O)c1cc2c(C(=O)C(=O)N(C)C)cn(C)c2cc1Cl` [talmapimod], the CC50 in series [2] was over 20 µM. The IC50 in [3] turned out to be 9.6 µM.
Take `Nc1nc2c(ncn2[C@@H]2O[C@H](CO)[C@@H](O)[C@H]2O)c(=S)[nH]1` [thioguanosine]: in series [1] (printed as CI = IC50/CC50, Caco-2 toxicity versus SARS-CoV-2 anti-cytopathic effect), the “CI (cytotoxicity index)” value is reported as under 3. In series [3], the half-inhibitory concentration (IC50) was 0.78 µM.

The values above are taken from article PMC7910569 (Scientific Data, 2021).
